For twelve compounds, IC50 results are on record in US20260356856A1, “KRAS G12S AND G12C INHIBITORS” (MIRATI THERAPEUTICS, INC., priority 2023, published 2026).

Where only a bound is given, the exact number is not on record here.

Usually IC50 stands for the concentration that gives 50% inhibition. A high value points to weaker potency.

For one assay, the target named is T1, KRas WT (Homo sapiens, UniProt P01116).
T1 construct: Biotinylated KRas (corresponding to amino acids 1-169, produced at Accelegan Inc.); biotin (biotinylated); purchased Accelegan Inc
T1 sequence (P01116 1-169 isoform P01116-2): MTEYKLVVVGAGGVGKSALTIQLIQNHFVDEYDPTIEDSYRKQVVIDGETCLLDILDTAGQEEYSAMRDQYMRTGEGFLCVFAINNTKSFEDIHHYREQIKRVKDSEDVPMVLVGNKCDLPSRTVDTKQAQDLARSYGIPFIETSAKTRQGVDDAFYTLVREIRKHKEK
As to the kind of experiment: KRas binding assay, TR-FRET displacement of Cy5 labelled tracer. The following applies: 60-minute incubation at room temperature, 1% DMSO, pH 7.5. In a few lines: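 Displacement measured on KRas residues 1-169 (biotinylated, terbium-streptavidin labelled); 1 h, RT; 1% DMSO final; HEPES pH 7.5 / MgCl2 / Tween-20 / DTT. IC50: 4-parameter fit.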
Background: TR-FRET usually uses a lanthanide donor and a delayed reading to cut background.

For another assay, the target named is T2, KRas G12S (Homo sapiens, UniProt P01116, G12S).
T2 construct: Biotinylated KRas (corresponding to amino acids 1-169, produced at Accelegan Inc.); biotin (biotinylated); purchased Accelegan Inc
T2 sequence (P01116 1-169 isoform P01116-2 G12S): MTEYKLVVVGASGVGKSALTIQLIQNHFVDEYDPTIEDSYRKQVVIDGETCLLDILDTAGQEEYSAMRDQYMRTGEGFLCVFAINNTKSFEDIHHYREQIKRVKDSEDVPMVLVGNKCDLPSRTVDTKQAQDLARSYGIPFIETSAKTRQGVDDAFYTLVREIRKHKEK
The assay is described as above. The following applies: 60-minute incubation at room temperature, 1% DMSO, pH 7.5. In a few lines:
(§1)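 Compound competes with tracer for biotin-labelled KRas (amino acids 1-169) bound to terbium-streptavidin. Incubation runs 60 minutes at room temperature, final DMSO 1%. IC50 values derive from a 4-parameter fit.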

The next assay has as its target T3, KRas G12C (Homo sapiens, UniProt P01116, G12C).
T3 construct: Biotinylated KRas (corresponding to amino acids 1-169, produced at Accelegan Inc.); biotin (biotinylated); purchased Accelegan Inc
Described as above. The following applies: 60-minute incubation at room temperature, 1% DMSO, pH 7.5. A digest of the protocol:
as §1

For assay [1], the target named is T4, KRas-mediated phosphorylation of ERK in A549 cells (Homo sapiens, UniProt P01116, G12S).
T4 construct: pERK HTRF read-out
T4 sequence (P01116 1-188 isoform P01116-2 G12S): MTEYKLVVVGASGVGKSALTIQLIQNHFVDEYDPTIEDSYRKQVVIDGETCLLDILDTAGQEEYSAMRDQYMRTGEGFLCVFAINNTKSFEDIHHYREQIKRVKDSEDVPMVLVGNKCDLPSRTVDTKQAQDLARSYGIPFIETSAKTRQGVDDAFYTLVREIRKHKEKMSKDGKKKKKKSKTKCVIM
As to the kind of experiment: Inhibition of KRas-mediated phosphorylation of ERK (HTRF), A549 cells. The following applies: HTRF pERK, 3 h incubation. Format: cell-based.

Assay [2] concerns the target T5, KRas-mediated phosphorylation of ERK in H358 cells (Homo sapiens, UniProt P01116, G12C).
T5 construct: pERK HTRF read-out
Description: Inhibition of KRas-mediated phosphorylation of ERK (HTRF), H358 cells. The following applies: HTRF pERK, 3 h incubation. Format: cell-based.

For assay [3], the target named is T6, KRas-mediated phosphorylation of ERK in MKN1 cells (Homo sapiens, UniProt P01116).
T6 construct: pERK HTRF read-out
T6 sequence (P01116 1-188 isoform P01116-2): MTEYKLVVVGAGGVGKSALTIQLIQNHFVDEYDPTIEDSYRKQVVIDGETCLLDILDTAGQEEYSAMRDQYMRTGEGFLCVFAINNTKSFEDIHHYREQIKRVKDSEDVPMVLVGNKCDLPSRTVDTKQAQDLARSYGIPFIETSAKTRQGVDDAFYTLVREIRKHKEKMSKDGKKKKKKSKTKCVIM
As to the kind of experiment: Inhibition of KRas-mediated phosphorylation of ERK (HTRF), MKN1 cells. Format: cell-based. The following applies: MKN1 cells (KRas WT); HTRF pERK; 3 h incubation. The protocol:
Inhibition of KRas Phosphorylation of ERK (HTRF) by Exemplary Compounds of Formula (Ia) or (Ib)
Cisbio HTRF Advanced pERK Assay Catalog #64AERPEH • Cells: MKN1, PSN1 • Procedure: • 1. Day 1: Seed 6,000 cells/well −25 μl/well in 384-well white solid bottom plate; RPM1_10% FBS. Incubate overnight at 37 °C/5% CO2. • 2.

T3 sequence (P01116 1-169 isoform P01116-2 G12C): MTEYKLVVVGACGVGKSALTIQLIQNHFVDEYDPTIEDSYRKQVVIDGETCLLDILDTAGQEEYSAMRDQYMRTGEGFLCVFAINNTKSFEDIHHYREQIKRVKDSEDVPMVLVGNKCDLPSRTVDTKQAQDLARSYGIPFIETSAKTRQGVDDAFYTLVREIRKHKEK
T5 sequence (P01116 1-188 isoform P01116-2 G12C): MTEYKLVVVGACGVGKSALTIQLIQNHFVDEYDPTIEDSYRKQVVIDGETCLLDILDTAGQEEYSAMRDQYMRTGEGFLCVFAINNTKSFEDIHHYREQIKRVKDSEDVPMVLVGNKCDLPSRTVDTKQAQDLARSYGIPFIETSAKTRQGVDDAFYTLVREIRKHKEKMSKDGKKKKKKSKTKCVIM

For the compound `CCc1c(F)ccc2cc(O)cc(-c3ncc4c(N5CCC(C(=O)N(C)C(=O)C(C)(C)C)CC5)nc(OC[C@@]56CCCN5C[C@H](F)C6)nc4c3F)c12` [Example 224, 1-(7-(8-ethyl-7-fluoro-3-hydroxynaphthalen-1-yl)-8-fluoro-2-(((2R,7aS)-2-fluorotetrahydro-1H-pyrrolizin-7a(5H)-yl)methoxy)pyrido[4,3-d]pyrimidin-4-yl)-N-methyl-N-pivaloylpiperidine-4-carboxamide], the IC50 at KRas WT is 177 nM; on KRas G12S, 257 nM; on KRas G12C, 526 nM; in assay [1], 3770 nM; in assay [2], 1330 nM; in assay [3] it was 321 nM.

As for `CCc1c(F)ccc2cc(O)cc(-c3ncc4c(N(C)CCNC(=O)n5cncn5)nc(OC[C@@]56CCCN5C[C@H](F)C6)nc4c3F)c12` [Example 225, N-(2-((7-(8-ethyl-7-fluoro-3-hydroxynaphthalen-1-yl)-8-fluoro-2-(((2R,7aS)-2-fluorotetrahydro-1H-pyrrolizin-7a(5H)-yl)methoxy)pyrido[4,3-d]pyrimidin-4-yl)(methyl)amino)ethyl)-1H-1,2,4-triazole-1-carboxamide], the IC50 at KRas WT came out at 30 nM; on KRas G12S, 18 nM; at KRas G12C, 6 nM; in assay [1], 2730 nM; in assay [2], 13 nM; in assay [3], 237 nM.

Turning to `N#Cc1c(N)sc2c(F)ccc(-c3c(Cl)cc4c(N5CCN(C(=O)n6ccnn6)CC5)nc(OC[C@@]56CCCN5C[C@H](F)C6)nc4c3F)c12` [Example 226, 4-(4-(4-(1H-1,2,3-triazole-1-carbonyl)piperazin-1-yl)-6-chloro-8-fluoro-2-(((2R,7aS)-2-fluorotetrahydro-1H-pyrrolizin-7a(5H)-yl)methoxy)quinazolin-7-yl)-2-amino-7-fluorobenzo[b]thiophene-3-carbonitrile], the IC50 was 6 nM at KRas WT; 8 nM on KRas G12S; < 2 nM on KRas G12C; 69 nM in assay [1]; 1 nM in assay [2]; 4 nM in assay [3].

In the case of `Cc1ccn(C(=O)C2CCCN(c3nc(OCC4(CN(C)C)CC4)nc4c(F)c(-c5ccc(F)c6sc(N)c(C#N)c56)c(Cl)cc34)CC2)n1` (stereo not drawn) [Example 227, 2-amino-4-(6-chloro-2-((1-((dimethylamino)methyl)cyclopropyl)methoxy)-8-fluoro-4-(4-(3-methyl-1H-pyrazole-1-carbonyl)azepan-1-yl)quinazolin-7-yl)-7-fluorobenzo[b]thiophene-3-carbonitrile], the 50% inhibitory concentration (IC50) at KRas WT is 93 nM; on KRas G12S, 13 nM; at KRas G12C, 19 nM; in assay [1], 46 nM; in assay [2] it was 185 nM; in assay [3], 522 nM.

For the compound `CN(CCNC(=O)n1cncn1)c1nc(OC[C@@]23CCCN2C[C@H](F)C3)nc2c(F)c(-c3ccc(F)c4sc(N)c(C#N)c34)c(Cl)cc12` [Example 228, N-(2-((7-(2-amino-3-cyano-7-fluorobenzo[b]thiophen-4-yl)-6-chloro-8-fluoro-2-(((2R,7aS)-2-fluorotetrahydro-1H-pyrrolizin-7a(5H)-yl)methoxy)quinazolin-4-yl)(methyl)amino)ethyl)-1H-1,2,4-triazole-1-carboxamide], the IC50 at KRas WT came out at 13 nM; on KRas G12S, 8 nM; at KRas G12C it was 3 nM; in assay [1], 448 nM; in assay [2] it was 9 nM; in assay [3], 252 nM.

Take `N#Cc1c(N)sc2c(F)ccc(-c3c(Cl)cc4c(N5CCN(S(=O)(=O)n6nccn6)CC5)nc(OC[C@@]56CCCN5C[C@H](F)C6)nc4c3F)c12` [Example 229, 4-(4-(4-((2H-1,2,3-triazol-2-yl)sulfonyl)piperazin-1-yl)-6-chloro-8-fluoro-2-(((2R,7aS)-2-fluorotetrahydro-1H-pyrrolizin-7a(5H)-yl)methoxy)quinazolin-7-yl)-2-amino-7-fluorobenzo[b]thiophene-3-carbonitrile]: the IC50 was 161 nM on KRas WT; 631 nM on KRas G12S; 586 nM on KRas G12C; > 10000 nM in assay [1]; > 10000 nM in assay [2]; 333 nM in assay [3].

Take `CCc1c(F)ccc2cc(O)cc(-c3ncc4c(N(C)CCCS(=O)(=O)n5cccn5)nc(OC[C@@]56CCCN5C[C@H](F)C6)nc4c3F)c12` [Example 230, 4-(4-((3-((1H-pyrazol-1-yl)sulfonyl)propyl)(methyl)amino)-8-fluoro-2-(((2R,7aS)-2-fluorotetrahydro-1H-pyrrolizin-7a(5H)-yl)methoxy)pyrido[4,3-d]pyrimidin-7-yl)-5-ethyl-6-fluoronaphthalen-2-ol]: the IC50 turned out to be 91 nM at KRas WT; 123 nM at KRas G12S; 134 nM on KRas G12C; 4350 nM in assay [1]; 1500 nM in assay [2]; 394 nM in assay [3].

Take `N#Cc1c(N)sc2c(F)ccc(-c3c(Cl)cc4c(N5CCN(C(=O)n6ccnc6)CC5)nc(OC[C@@]56CCCN5C[C@H](F)C6)nc4c3F)c12` [Example 231, 4-(4-(4-(1H-imidazole-1-carbonyl)piperazin-1-yl)-6-chloro-8-fluoro-2-(((2R,7aS)-2-fluorotetrahydro-1H-pyrrolizin-7a(5H)-yl)methoxy)quinazolin-7-yl)-2-amino-7-fluorobenzo[b]thiophene-3-carbonitrile]: the IC50 at KRas WT came out at 13 nM; on KRas G12S, 17 nM; at KRas G12C it was 5 nM; in assay [1] it was 444 nM; in assay [2] it was 4 nM; in assay [3] it was 25 nM.

`CN(CCN(C)c1nc(OC[C@@]23CCCN2C[C@H](F)C3)nc2c(F)c(-c3ccc(F)c4sc(N)c(C#N)c34)c(Cl)cc12)C(=O)n1cncn1` [Example 232, N-(2-((7-(2-amino-3-cyano-7-fluorobenzo[b]thiophen-4-yl)-6-chloro-8-fluoro-2-(((2R,7aS)-2-fluorotetrahydro-1H-pyrrolizin-7a(5H)-yl)methoxy)quinazolin-4-yl)(methyl)amino)ethyl)-N-methyl-1H-1,2,4-triazole-1-carboxamide]: the IC50 on KRas WT came to 12 nM; at KRas G12S, 7 nM; on KRas G12C it was 3 nM; in assay [1], 234 nM; in assay [2] it was 3 nM; in assay [3], 97 nM.

With `CON(C(C)=O)C(=O)CCCN(C)c1nc(OC[C@@]23CCCN2C[C@H](F)C3)nc2c(F)c(-c3ccc(F)c4sc(N)c(C#N)c34)c(Cl)cc12` [Example 234, N-acetyl-4-((7-(2-amino-3-cyano-7-fluorobenzo[b]thiophen-4-yl)-6-chloro-8-fluoro-2-(((2R,7aS)-2-fluorotetrahydro-1H-pyrrolizin-7a(5H)-yl)methoxy)quinazolin-4-yl)(methyl)amino)-N-methoxybutanamide], the IC50 was 9 nM on KRas WT; 3 nM on KRas G12S; < 2 nM on KRas G12C; 3 nM in assay [1]; 7 nM in assay [2]; 161 nM in assay [3].

Consider `CN(C=O)C(=O)CCCN(C)c1nc(OC[C@@]23CCCN2C[C@H](F)C3)nc2c(F)c(-c3ccc(F)c4sc(N)c(C#N)c34)c(Cl)cc12` [Example 235, 4-((7-(2-amino-3-cyano-7-fluorobenzo[b]thiophen-4-yl)-6-chloro-8-fluoro-2-(((2R,7aS)-2-fluorotetrahydro-1H-pyrrolizin-7a(5H)-yl)methoxy)quinazolin-4-yl)(methyl)amino)-N-formyl-N-methylbutanamide], for which the IC50 at KRas WT is 6 nM; at KRas G12S, 2 nM; on KRas G12C it was 3 nM; in assay [1], 7 nM; in assay [2], 60 nM; in assay [3], 82 nM.

Consider `CC(=O)N(C)C(=O)[C@@H]1C[C@@H]2CN(c3nc(OC[C@@]45CCCN4C[C@H](F)C5)nc4c(F)c(-c5ccc(F)c6sc(N)c(C#N)c56)c(Cl)cc34)C[C@@H]2C1` [Example 237, (3aR,5R,6aS)-N-acetyl-2-((S)-7-(2-amino-3-cyano-7-fluorobenzo[b]thiophen-4-yl)-6-chloro-8-fluoro-2-(((2R,7aS)-2-fluorotetrahydro-1H-pyrrolizin-7a(5H)-yl)methoxy)quinazolin-4-yl)-N-methyloctahydrocyclopenta[c]pyrrole-5-carboxamide], for which the IC50 came to 15 nM on KRas WT; 6 nM on KRas G12S; 18 nM at KRas G12C; 17 nM in assay [1]; 69 nM in assay [2]; 70 nM in assay [3].
